Data taken from patent US20260207754A1, “MET PROTEIN DEGRADATION INDUCING COMPOUND” (ONCOZEN CO., LTD., priority 2022, published 2026).

Tests used:
Format in all cases: cell-based
[1] = tested on: c-MET (total form); assay: Target protein degradation assay (Western blot); settings: H1437 cells, standard concentration and time 5 μM, 72 hours
Description: Cells (H596 or H1437 cells) were seeded in Φ60 or Φ100 culture dishes to reach 5×10^5 or 1×10^6 cells, and then cultured for more than 12 hours. […] The cells were then harvested, lysed using RIPA buffer, and centrifuged (4° C., 13000 rpm, 15 min), to collect the supernatant in a new tube. Protein quantification was performed using the Bradford Assay, and samples were prepared for loading by boiling at 95° C. Western blotting was performed. The samples were loaded onto an SDS polyacrylamide gel (8% concentration). Electrophoresis was conducted at 80V, and then switched to 100-120V (when the loaded sample moves from the stacking gel to the running gel). After electrophoresis, the polyacrylamide gel was transferred onto the membrane (using transfer buffer diluted at 10× transfer buffer:methanol:D.W=1:2:7 ratio, cold, for 100V, 1 hour or 80V, 2 hours). The membrane was blocked with 5% skim milk for 30 minutes and washed with PBS-T (phosphate-buffered saline with Tween 20) buffer. The primary antibody was diluted in 5% BSA+NaN3 solution and reacted with the membrane for over 12 hours, followed by washing with PBS-T and reaction with 5% skim milk+secondary antibody for 1 hour and 30 minutes. After washing with PBS-T, the ECL solution was reacted with the membrane, and the bands were detected using an imaging device to confirm the degradation of the target protein c-MET.

[2] = tested on: H1437 cells; assay: Cell viability assay (CCK8); settings: three days treatment
Description: (§1) This experiment involves treating cells with each of the compounds prepared in Examples 1 to 11, and then observing changes in cell cytotoxicity and cell count. The IC50 values, derived from the changes in cell count, can be used to assess the cancer cell growth inhibition and anti-cancer effects of the compound of the present invention.
(§2) Cells (H596 or H1437 cells) were seeded in a 96-well plate at 3×10^3 cells per well and then cultured for more than 12 hours. After removing the media, each well was treated with 200 μl of the respective diluted compounds prepared in Examples 1 to 11. Three days later, the media was removed, and each well was treated with 10 μl of CCK8 reagent+90 μl of media. After 3-4 hours of reaction, the absorbance was measured using an ELISA reader at a wavelength of 450 nm.

[3] = tested on: H596 cells; assay: Cell viability assay (CCK8); settings: three days treatment
Description: as §1, §2

[4] = tested on: c-MET (total form); assay: Target protein degradation assay (Western blot); settings: for c-MET degradation H596: H596 cells, Western blot, standard concentration and time 5 μM, 72 hours; for degradation of the target MET protein: H596 or H1437 cells, summary of Table 3
Description: This experiment assessed the tendency and extent of degradation of the target protein c-MET (total form) in cells treated with each of the compounds prepared in Examples 1 to 11.
Cells (H596 or H1437 cells) were seeded in Φ60 or Φ100 culture dishes to reach 5×10^5 or 1×10^6 cells, and then cultured for more than 12 hours. After removing the media, the cells were treated with each respective compound prepared in Examples 1 to 11 at various conditions-concentrations (0, 2.5, 5, 10 μM), time (0, 6, 8, 24, 48, 72 hours), and standard concentration and time (5 μM, 72 hours) for all compounds. The cells were then harvested, lysed using RIPA buffer, and centrifuged (4° C., 13000 rpm, 15 min), to collect the supernatant in a new tube. Protein quantification was performed using the Bradford Assay, and samples were prepared for loading by boiling at 95° C. Western blotting was performed. The samples were loaded onto an SDS polyacrylamide gel (8% concentration). Electrophoresis was conducted at 80V, and then switched to 100-120V (when the loaded sample moves from the stacking gel to the running gel). After electrophoresis, the polyacrylamide gel was transferred onto the membrane (using transfer buffer diluted at 10× transfer buffer:methanol:D.W=1:2:7 ratio, cold, for 100V, 1 hour or 80V, 2 hours). The membrane was blocked with 5% skim milk for 30 minutes and washed with PBS-T (phosphate-buffered saline with Tween 20) buffer. The primary antibody was diluted in 5% BSA+NaN3 solution and reacted with the membrane for over 12 hours, followed by washing with PBS-T and reaction with 5% skim milk+secondary antibody for 1 hour and 30 minutes. After washing with PBS-T, the ECL solution was reacted with the membrane, and the bands were detected using an imaging device to confirm the degradation of the target protein c-MET.

| Compound | c-MET degradation H1437 [1] | IC50 [2] [µM] | IC50 [3] [µM] | c-MET degradation H596 [4] | IC50 ([2]; Homo sapiens, NCI-H1437, 72 h) [µM] | IC50 ([3]; Homo sapiens, NCI-H596, 72 h) [µM] | degradation of the target MET protein [4] |
| --- | --- | --- | --- | --- | --- | --- | --- |
| 2,4-dihydroxy-N-({4-[(5-{4-[3-(1-{imidazole[1,2-a]pyridin-6-yl}ethyl)-[1,2,3]triazolo[4,5-b]pyrazin-5-yl]pyrazol-1-yl}-5-oxopentyl) carbamoyl]phenyl}methyl)-5-isopropyl-N-methylbenzamide [OZD-MET 05] | 2 (10% < degradation < 50%: 2) | 5.71 | 4.72 | 2 (10% < degradation < 50%: 2) | – | – | – |
| CC(C)c1cc(C(=O)N(C)Cc2cccc(C(=O)NCCOCCOC(=O)N3CCC(n4cc(-c5cnc(N)c(O[C@@H](C)c6c(Cl)ccc(F)c6Cl)c5)cn4)CC3)c2)c(O)cc1O (stereo in doubt) [OZD-MET 01, 2-{2-[(3-{[1-(2,4-dihydroxy-5-isopropylphenyl)-N-methylformamido]methyl}phenyl)formamido]ethoxy}ethyl 4-(4-{6-amino-5-[1-(2,6-dichloro-3-fluorophenyl)ethoxy]pyridin-3-yl}pyrazol-1-yl)piperidine-1-carboxylate] | 1 (50% < degradation: 1) | – | – | 1 (50% < degradation: 1) | 3.5 | 3.07 | – |
| CC(C)c1cc(C(=O)N(C)Cc2ccc(C(=O)NCCCCC(=O)N3CCC(n4cc(-c5cnc(N)c(O[C@@H](C)c6c(Cl)ccc(F)c6Cl)c5)cn4)CC3)cc2)c(O)cc1O (stereo in doubt) [OZD-MET 03, N-{[4-({5-[4-(4-{6-amino-5-[1-(2,6-dichloro-3-fluorophenyl)ethoxy]pyridine-3-yl}pyrazol-1-yl)piperidin-1-yl]-5-oxopentyl}carbamoyl)phenyl]methyl}-2,4-dihydroxy-5-isopropyl-N-methylbenzamide] | 1 (50% < degradation: 1) | – | – | 1 (50% < degradation: 1) | 2.64 | 1.97 | – |
| CC(C)c1cc(C(=O)N(C)Cc2cccc(C(=O)O)c2)c(O)cc1O [Compound (d), reference compound] | No degradation | – | – | No degradation | – | – | no degradation |
| CC(C)c1cc(C(=O)N(C)Cc2ccc(C(=O)O)cc2)c(O)cc1O [Compound (i), reference compound] | No degradation | – | – | No degradation | – | – | no degradation |
| C[C@@H](Oc1cc(-c2cnn(C3CCNCC3)c2)cnc1N)c1c(Cl)ccc(F)c1Cl [Crizotinib, reference compound] | – | – | – | No degradation | 31.9 | 20.3 | no degradation |
| CC(C)c1cc(C(=O)N(C)Cc2ccc(C(=O)NCCOCCOC(=O)N3CCC(n4cc(-c5cnc(N)c(O[C@@H](C)c6c(Cl)ccc(F)c6Cl)c5)cn4)CC3)cc2)c(O)cc1O [OZD-MET 02] | 1 (50% < degradation: 1) | – | – | 1 (50% < degradation: 1) | 4.06 | 2.59 | – |
| CC(C)c1cc(C(=O)N(C)Cc2cccc(C(=O)NCCOCCOC(=O)n3cc(-c4cnc5nnn([C@@H](C)c6ccc7nccn7c6)c5n4)cn3)c2)c(O)cc1O [OZD-MET 04, 2-{2-[(3-{[1-[2,4-dihydroxy-5-isopropylphenyl]-N-methylformamido]methyl}phenyl)formamido]ethoxy}ethyl 4-[3-(1-{imidazole[1,2-a]pyridin-6-yl}ethyl)-[1,2,3]triazolo[4,5-b]pyrazin-5-yl]pyrazole-1-carboxylate] | 3 (degradation < 10%: 3) | – | – | 2 (10% < degradation < 50%: 2) | 4.65 | 4.18 | – |
| CC(C)c1cc(C(=O)N(C)Cc2cccc(C(=O)NCCOCCOC(=O)Nc3ccc4nccc(Oc5ccc(NC(=O)C6(C(=O)Nc7ccc(F)cc7)CC6)cc5)c4c3)c2)c(O)cc1O [OZD-MET 06, 2-{2-[(3-{[1-(2,4-dihydroxy-5-isopropylphenyl)-N-methylformamido]methyl}phenyl)formamido]ethoxy}ethyl N-[4-(4-{1-[(4-fluorophenyl)carbamoyl]cyclopropanamido}phenoxy)quinolin-6-yl)carbamate] | 2 (10% < degradation < 50%: 2) | – | – | 2 (10% < degradation < 50%: 2) | 4.25 | 3.38 | – |
| CC(C)c1cc(C(=O)N(C)Cc2ccc(C(=O)NCCCCC(=O)Nc3ccc4nccc(Oc5ccc(NC(=O)C6(C(=O)Nc7ccc(F)cc7)CC6)cc5)c4c3)cc2)c(O)cc1O [OZD-MET 07, N′1-{4-[(6-{5-[(4-{[1-(2,4-dihydroxy-5-isopropylphenyl)-N-methylformamido]methyl}phenyl)formamido]pentanamido}quinolin-4-yl)oxy]phenyl}-N1-(4-fluorophenyl)cyclopropane-1,1-dicarboxamide] | 2 (10% < degradation < 50%: 2) | – | – | 1 (50% < degradation: 1) | 3.21 | 3.43 | – |
| CC(C)c1cc(C(=O)N(C)Cc2cccc(C(=O)NCCOCCOC(=O)Nc3ccc(-c4cnc5ncc(Cc6ccc7ncccc7c6)n5n4)cc3F)c2)c(O)cc1O [OZD-MET 08, 2-{2-[(3-{[1-(2,4-dihydroxy-5-isopropylphenyl)-N-methylformamido]methyl}phenyl)formamido]ethoxy}ethyl N-{2-fluoro-4-[7-(quinolin-6-ylmethyl)imidazo[1,2-b][1,2,4]triazin-2-yl]phenyl}carbamate] | 2 (10% < degradation < 50%: 2) | – | – | 1 (50% < degradation: 1) | 4.34 | 3.08 | – |
| CC(C)c1cc(C(=O)N(C)Cc2ccc(C(=O)NCCCCC(=O)Nc3ccc(-c4cnc5ncc(Cc6ccc7ncccc7c6)n5n4)cc3F)cc2)c(O)cc1O [OZD-MET 09, N-[(4-{[4-({2-fluoro-4-[7-(quinolin-6-ylmethyl)imidazo[1,2-b][1,2,4]triazin-2-yl]phenyl}carbamoyl)butyl]carbamoyl}phenyl)methyl]-2,4-dihydroxy-5-isopropyl-N-methyl-benzamide] | 1 (50% < degradation: 1) | – | – | 2 (10% < degradation < 50%: 2) | 3.11 | 4.18 | – |
| CC(C)c1cc(C(=O)N(C)Cc2cccc(C(=O)NCCOCCOC(=O)N3CCC(COc4cnc(-c5cccc(Cn6nc(-c7cccc(C#N)c7)ccc6=O)c5)nc4)CC3)c2)c(O)cc1O [OZD-MET 10, 2-{2-[(3-{[1-(2,4-dihydroxy-5-isopropylphenyl)-N-methylformamido]methyl}phenyl)formamido]ethoxy}ethyl 4-({[2-(3-{[3-(3-cyanophenyl)-6-oxopyridazin-1-yl]methyl}phenyl)pyrimidin-5-yl]oxy}methyl)piperidine-1-carboxylate] | 1 (50% < degradation: 1) | – | – | 1 (50% < degradation: 1) | 3.29 | 3.19 | – |
| CC(C)c1cc(C(=O)N(C)Cc2ccc(C(=O)NCCCCC(=O)N3CCC(COc4cnc(-c5cccc(Cn6nc(-c7cccc(C#N)c7)ccc6=O)c5)nc4)CC3)cc2)c(O)cc1O [OZD-MET 11, N-{[4-({5-[4-({[2-(3-{[3-(3-cyanophenyl)-6-oxopyridazin-1-yl]methyl}phenyl)pyrimidin-5-yl]oxy}methyl)piperidin-1-yl]-5-oxopentyl}carbamoyl)phenyl]methyl}-2,4-dihydroxy-5-isopropyl-N-methylbenzamide] | 1 (50% < degradation: 1) | – | – | 2 (10% < degradation < 50%: 2) | 3.44 | 3.99 | – |
